Results as given in PMC12006171, “Marsupial cathelicidins: characterization, antimicrobial activity and evolution in this unique mammalian lineage” (Frontiers in Immunology, 2025).
Values after ≈ are worked out from the molar mass of the structure shown. Read-outs that look alike come from different tables or passages of the source. Where a SMILES comes first, the peptide text is derived from it.

Key:
[1] = tested on: Pseudomonas aeruginosa clinical isolate - animal; assay: microbe, parasite or virus in culture; assay type: cell-based; settings: read-out: MIC P. aeruginosa
Procedure: (§1) Antimicrobial testing of 78 cathelicidin MPs was performed in two phases as outlined in Figure 1 . In phase I, 40 peptides (27 extant and 13 ancestral) were selected for testing based on rank (outlined above) and similarity to published marsupial cathelicidins with known antimicrobial activity ([33], [41]–[43]). These peptides were tested against nine bacteria (Staphylococcus aureus ATCC 29213 and clinical isolate, Escherichia coli ATCC 25922 and clinical isolate, Pseudomonas aeruginosa ATCC 27853 and clinical isolate, Streptococcus agalactiae ATCC 12386 and clinical isolate, Streptococcus pneumoniae ATCC 49619) and three fungi (Candida krusei ATCC 6258, Candida parapsilosis ATCC 22019, and Candida albicans clinical isolate). Details regarding these strains are available in Supplementary Table 4 . The antimicrobial activity of cathelicidins was determined as the minimum inhibitory concentration (MIC), which was the lowest concentration of cathelicidin that prevented visible bacterial or fungal growth, relative to the negative control. […] Minimum bactericidal concentration (MBC) and/or minimum fungicidal concentration (MFC) was conducted to determine microbicidal versus static action. Activity against S. aureus ATCC, E. coli ATCC, and Pseudomonas aeruginosa ATCC 27853 was examined in the presence of divalent cations to determine the impact of inhibitors.
(§2) In phase II, the remaining 38 peptides (37 extant and one ancestral) were tested against six bacteria (S. aureus ATCC and clinical isolate, E. coli ATCC and clinical isolate, and P. aeruginosa ATCC and clinical isolate). […] No further testing on phase II peptides was performed. Detailed methods for all assays are provided in subsequent sections.
(§3) Antimicrobial activity was determined using a broth microdilution susceptibility assay in 96 well polypropylene plates according to Clinical Laboratory Standards Institute guidelines M07-A and M26A as described previously ([33], [42], [43]). The bacterial and fungal isolates from humans and animals used in this study are outlined in Supplementary Table 4 . Only yeasts were included in the panel of fungi as they have been used in the susceptibility testing of eutherian ([3], [81]–[83]) and other marsupial cathelicidins previously ([33], [42], [43]). Cathelicidin mature peptides were solubilized in DMSO and serially diluted in duplicate from 128-0.25μg/mL in a final volume of 100µL. For bacteria, cathelicidins were diluted in Mueller Hinton Broth (MHB) with or without 10% lysed horse blood, and with (MH II B) or without (MHB) calcium and magnesium cations. For fungi, cathelicidins were diluted in Roswell Park Memorial Institute medium (RPMI)-1640 MOPS. Ampicillin or tetracycline were included as a positive control for Gram-positive and -negative bacteria respectively, while amphotericin B was used for fungi. A media-only negative control and growth control (no cathelicidin) were also included on each plate. Bacteria were sub-cultured on Muller Hinton agar (MHA) or sheep blood agar (BA), and fungi on Sabouraud dextrose agar (SAB), 20–24 hours prior to the test. Colonies were suspended in saline, the concentration adjusted to a 0.5 McFarland standard, and then diluted in media to a concentration of 1.0 x 10^6 cells/mL. Then, 100μL was added to each well of the cathelicidin dilution plate, giving a final inoculum density of 5 x 10^5 CFU/mL and cathelicidin concentration of 64-0.125μg/mL. Colony counts were performed on MHA/BA/SAB to confirm inoculum density. All plates were incubated at 35°C for 20–24 hours, depending on the strain.
(§4) Colonies were counted and compared to the colony count of the starting inoculum.

[2] = tested on: Staphylococcus aureus ATCC 29213; assay: microbe, parasite or virus in culture; assay type: cell-based; settings: read-out: MIC S. aureus ATCC
Procedure: as §1, §2, §3, §4

[3] = tested on: Staphylococcus aureus clinical isolate - animal; assay: microbe, parasite or virus in culture; assay type: cell-based; settings: read-out: MIC S. aureus
Procedure: as §1, §2, §3, §4

[4] = tested on: Escherichia coli clinical isolate - animal; assay: microbe, parasite or virus in culture; assay type: cell-based
Procedure: as §1, §2, §3, §4

[5] = tested on: Pseudomonas aeruginosa ATCC 27853; assay: microbe, parasite or virus in culture; assay type: cell-based; settings: read-out: MIC P. aeruginosa ATCC
Procedure: as §1, §2, §3, §4

[6] = tested on: Escherichia coli ATCC 25922; assay: microbe, parasite or virus in culture; assay type: cell-based
Procedure: as §1, §2, §3, §4

[7] = tested on: six bacteria (S. aureus, E. coli, P. aeruginosa; ATCC and clinical isolate); parameters: method as in 4 sources, ref Peel et al 2016 ||| ref Peel et al 2021 ||| ref Wang et al 2011 ||| ref Peel et al 2017; settings: cited from earlier work
[8] = tested on: three fungi (Candida krusei, Candida parapsilosis, Candida albicans); parameters: method as in 4 sources, ref Peel et al 2016 ||| ref Peel et al 2021 ||| ref Wang et al 2011 ||| ref Peel et al 2017; settings: cited from earlier work
[9] = clinical isolate, µM equivalent of Table 3
[10] = mature peptide (MP), Y/N summary, ref Peel et al 2017
[11] = mature peptide, Y/N summary from earlier study, ref Peel et al 2021
[12] = mature peptide, Y/N summary from earlier study, ref Peel et al 2017
[13] = mature peptide, Y/N summary from earlier study, ref Peel et al 2016
[14] = mature peptide, Y/N summary from earlier study, ref Wang et al 2011

Compound: CC[C@H](C)[C@H](NC(=O)[C@H](CO)NC(=O)[C@H](CCCNC(=N)N)NC(=O)[C@H](CCCNC(=N)N)NC(=O)[C@@H]1CCCN1C(=O)[C@H](CCCNC(=N)N)NC(=O)[C@@H]1CCCN1C(=O)[C@H](Cc1ccccc1)NC(=O)[C@@H]1CCCN1C(=O)[C@H](Cc1ccccc1)NC(=O)CNC(=O)[C@@H]1CCCN1C(=O)[C@H](CCCNC(=N)N)NC(=O)[C@@H]1CCCN1C(=O)[C@H](Cc1ccccc1)NC(=O)[C@@H]1CCCN1C(=O)[C@H](Cc1ccccc1)NC(=O)CNC(=O)[C@@H]1CCCN1C(=O)[C@H](CCCNC(=N)N)NC(=O)[C@@H]1CCCN1C(=O)[C@H](Cc1ccccc1)NC(=O)[C@H](CO)NC(=O)[C@@H]1CCCN1C(=O)[C@H](CCCNC(=N)N)NC(=O)[C@@H]1CCCN1C(=O)[C@H](CCCNC(=N)N)NC(=O)[C@@H]1CCCN1C(=O)[C@H](CCCNC(=N)N)NC(=O)[C@@H]1CCCN1C(=O)[C@H](CC(C)C)NC(=O)[C@H](Cc1ccc(O)cc1)NC(=O)[C@@H]1CCCN1C(=O)[C@H](CCCNC(=N)N)NC(=O)[C@H](CCCNC(=N)N)NC(=O)[C@H](CCC(=O)O)NC(=O)[C@H](CCCNC(=N)N)NC(=O)[C@@H](N)CCCNC(=N)N)C(=O)O [MyfaCath3] (H-RRERRPYLPRPRPRPSFPRPGFPFPRPGFPFPRPRRSI-OH)
- MIC ([1]; clinical isolate - animal): >13.6 µM
- MIC ([2]; ATCC 29213): >13.6 µM
- MIC ([3]; clinical isolate - animal): >13.6 µM
- MBC E. coli ([4]; clinical isolate - animal): 3.4 µM (≈ 16 µg/mL)
- MIC E. coli ([4]; clinical isolate - animal): 3.4 µM (≈ 16 µg/mL)
- MIC ([5]; ATCC 27853): >13.6 µM
- MBC E. coli ATCC ([6]; ATCC 25922): 1.7 µM (≈ 7.99 µg/mL)
- MIC E. coli ATCC ([6]; ATCC 25922): 1.7 µM (≈ 7.99 µg/mL)

Compound: CC[C@H](C)[C@H](NC(=O)[C@H](C)NC(=O)[C@H](CC(N)=O)NC(=O)[C@H](CCCCN)NC(=O)[C@@H](NC(=O)[C@@H](NC(=O)[C@H](CC(N)=O)NC(=O)[C@H](CCCCN)NC(=O)[C@@H](NC(=O)[C@H](CCCCN)NC(=O)[C@H](CC(=O)O)NC(=O)CNC(=O)[C@H](C)NC(=O)[C@H](CCCNC(=N)N)NC(=O)[C@H](CCCCN)NC(=O)[C@H](CC(C)C)NC(=O)[C@H](Cc1ccccc1)NC(=O)[C@H](CC(N)=O)NC(=O)[C@H](CCCCN)NC(=O)[C@H](Cc1ccccc1)NC(=O)[C@H](CCCCN)NC(=O)[C@H](CCC(=O)O)NC(=O)[C@H](Cc1ccccc1)NC(=O)[C@@H](NC(=O)[C@H](CCCNC(=N)N)NC(=O)[C@H](CC(C)C)NC(=O)[C@H](CCCCN)NC(=O)[C@H](CCCCN)NC(=O)[C@@H](NC(=O)[C@H](CC(N)=O)NC(=O)[C@H](CCC(=O)O)NC(=O)[C@@H]1CCCN1C(=O)[C@@H](N)CCCNC(=N)N)[C@@H](C)CC)C(C)C)[C@@H](C)CC)[C@@H](C)O)[C@@H](C)CC)C(=O)N[C@@H](CC(N)=O)C(=O)N[C@@H](CC(N)=O)C(=O)N[C@@H](CC(C)C)C(=O)N[C@@H](Cc1ccccc1)C(=O)N[C@@H](CO)C(=O)O [PeguCath3] (H-RPENIKKLRVFEKFKNFLKRAGDKIKNTIKNAINNLFS-OH)
- MIC ([1]; clinical isolate - animal): >14.1 µM
- MIC ([2]; ATCC 29213): >14.1 µM
- MIC ([3]; clinical isolate - animal): >14.1 µM
- MIC ([4]; clinical isolate - animal): >14.1 µM
- MIC ([5]; ATCC 27853): >14.1 µM
- MIC ([6]; ATCC 25922, read-out: MIC E. coli ATCC): 14.1 µM (≈ 63.9 µg/mL)

Compound: CC[C@H](C)[C@H](NC(=O)[C@H](CO)NC(=O)[C@H](CCCNC(=N)N)NC(=O)CNC(=O)[C@@H]1CCCN1C(=O)[C@H](CCCNC(=N)N)NC(=O)[C@@H]1CCCN1C(=O)[C@H](CCCNC(=N)N)NC(=O)[C@@H]1CCCN1C(=O)[C@H](CCCNC(=N)N)NC(=O)[C@@H]1CCCN1C(=O)[C@H](Cc1ccccc1)NC(=O)[C@H](CC(N)=O)NC(=O)[C@@H]1CCCN1C(=O)[C@H](CCCNC(=N)N)NC(=O)[C@@H]1CCCN1C(=O)[C@H](Cc1ccccc1)NC(=O)[C@H](CCCNC(=N)N)NC(=O)[C@@H]1CCCN1C(=O)[C@H](CCCNC(=N)N)NC(=O)[C@@H]1CCCN1C(=O)[C@H](CC(C)C)NC(=O)[C@H](Cc1ccc(O)cc1)NC(=O)[C@@H]1CCCN1C(=O)[C@H](CCCNC(=N)N)NC(=O)[C@H](CCCNC(=N)N)NC(=O)[C@@H](NC(=O)[C@H](CCCNC(=N)N)NC(=O)[C@H](CCCNC(=N)N)NC(=O)[C@H](C)NC(=O)[C@H](C)NC(=O)[C@H](CC(C)C)NC(=O)[C@H](CC(C)C)NC(=O)CN)[C@@H](C)CC)C(=O)O [SmcrCath12] (H-GLLAARRIRRPYLPRPRFPRPNFPRPRPRPGRSI-OH)
- MIC [1, 9]: >15.6 µM
- MIC ([2]; µM equivalent of Table 3): >15.6 µM
- MIC [3, 9]: >15.6 µM
- MBC E. coli ([4]; clinical isolate, value in brackets, µM equivalent of Table 3): 3.9 µM
- MIC E. coli [4, 9]: 3.9 µM
- MIC ([5]; µM equivalent of Table 3): >15.6 µM
- MBC E. coli ATCC ([6]; value in brackets, µM equivalent of Table 3): 1.9 µM
- MIC E. coli ATCC ([6]; µM equivalent of Table 3): 1.9 µM

Compound: APVTPAPPGFTTSSKKKGKKKLPYTVIFGRTDFP [ModoCath3]
- Antibacterial (MIC <64ug/mL) [7, 10]: N (Peel et al 2017) (Antibacterial (MIC <64ug/mL))
- Antifungal (MIC <64ug/mL) [8, 10]: N (Peel et al 2017) (Antifungal (MIC <64ug/mL))

Compound: ASSGIIDTSSLPPKIRQIYNQAVYDTLVGILRNF [PhciCath6]
- Antibacterial (MIC <64ug/mL) [7, 11]: N (Peel et al 2021) (Antibacterial (MIC <64ug/mL))
- Antifungal (MIC <64ug/mL) [8, 11]: N (Peel et al 2021) (Antifungal (MIC <64ug/mL))

Compound: GEKVKTRFIAAIEKLIDTFLP [MaeuCath3]
- Antibacterial (MIC <64ug/mL) [7, 12]: N (Peel et al 2017) (Antibacterial (MIC <64ug/mL))
- Antifungal (MIC <64ug/mL) [8, 12]: N (Peel et al 2017) (Antifungal (MIC <64ug/mL))

Compound: GIKHILFMAKTKLPRATCTAEIKENCDRKK [SahaCath1]
- Antibacterial (MIC <64ug/mL) [7, 13]: N (Peel et al 2016) (Antibacterial (MIC <64ug/mL))
- Antifungal (MIC <64ug/mL) [8, 13]: N (Peel et al 2016) (Antifungal (MIC <64ug/mL))

Compound: IKIFIPKGFYKGIQLVNEIIKENNERQKQKP [ModoCath12]
- Antibacterial (MIC <64ug/mL) [7, 10]: N (Peel et al 2017) (Antibacterial (MIC <64ug/mL))
- Antifungal (MIC <64ug/mL) [8, 10]: N (Peel et al 2017) (Antifungal (MIC <64ug/mL))

Compound: KDILKNNNIIILPGSNEK [OranCath1]
- Antibacterial (MIC <64ug/mL) ([7]; mature peptide (MP), Y/N summary, ref Wang et al 2011): Y (Wang et al 2011) (Antibacterial (MIC <64ug/mL))

Compound: KREDFLDQIIRDFRNFIYQKYRRLRDEFRKLRDILSG [SahaCath4]
- Antibacterial (MIC <64ug/mL) [7, 13]: N (Peel et al 2016) (Antibacterial (MIC <64ug/mL))
- Antifungal (MIC <64ug/mL) [8, 13]: N (Peel et al 2016) (Antifungal (MIC <64ug/mL))

Compound: KRGFGKKLRKRLKKFRNSIKKRLKNFNVVIPIPLPG [MaeuCath1]
- Antibacterial (MIC <64ug/mL) [7, 14]: Y (Wang et al 2011) (Antibacterial (MIC <64ug/mL))
- Antifungal (MIC <64ug/mL) [8, 14]: Y (Wang et al 2011) (Antifungal (MIC <64ug/mL))
